Tests used:
[1] = Half life in Wistar rat at 5 mg/kg, po administered as triple or quadruple dosing measured after 1 to 24 hrs by reverse-phase HPLC method; assay type: ADME, organism-based; conditions: in vivo
[2] = Tmax in Wistar rat at 5 mg/kg, po administered as triple or quadruple dosing measured after 1 to 24 hrs by reverse-phase HPLC method; assay type: ADME, organism-based; conditions: in vivo
[3] = biological target: T1, Plasminogen activator inhibitor 1 (Homo sapiens, UniProt P05121); test: Inhibition of human PAI-1 assessed as remaining enzyme activity by measuring p-nitroaniline release pre-incubated for 15 mins before 2 nM […] addition for 15 mins using 5 nM enzyme and chromogenic substrate S-2288 by spectrophotometry
[4] = Cmax in Wistar rat at 5 mg/kg, po administered as triple or quadruple dosing measured after 1 to 24 hrs by reverse-phase HPLC method; assay type: ADME, organism-based; parameters: dose 5 mg/kg, route oral; conditions: in vivo
[5] = Cmax in Wistar rat at 50 mg/kg, po administered as single dose measured after 1 to 24 hrs by reverse-phase HPLC method; assay type: ADME, organism-based; parameters: dose 50 mg/kg, route oral; conditions: in vivo
[6] = Tmax in Wistar rat at 50 mg/kg, po administered as single dose measured after 1 to 24 hrs by reverse-phase HPLC method; assay type: ADME, organism-based; conditions: in vivo
[7] = Tmax in Wistar rat at 5 mg/kg, po administered as single dose measured after 1 to 24 hrs by reverse-phase HPLC method; assay type: ADME, organism-based; conditions: in vivo
[8] = Half life in Wistar rat at 5 mg/kg, po administered as single dose measured after 1 to 24 hrs by reverse-phase HPLC method; conditions: in vivo
[9] = Cmax in Wistar rat at 5 mg/kg, po administered as single dose measured after 1 to 24 hrs by reverse-phase HPLC method; assay type: ADME, organism-based; parameters: dose 5 mg/kg, route oral; conditions: in vivo
[10] = Half life in Wistar rat at 50 mg/kg, po administered as single dose measured after 1 to 24 hrs by reverse-phase HPLC method; conditions: in vivo
[11] = biological target: T1, Plasminogen activator inhibitor 1; test: Inhibition of human PAI-1 assessed as remaining enzyme activity by measuring p-nitroaniline release pre-incubated for 15 mins before 9.8 nM human tPA substrate addition for 15 mins using 24.5 nM enzyme and chromogenic substrate S-2288 by spectrophotometry

T1 sequence (P05121 whole entry): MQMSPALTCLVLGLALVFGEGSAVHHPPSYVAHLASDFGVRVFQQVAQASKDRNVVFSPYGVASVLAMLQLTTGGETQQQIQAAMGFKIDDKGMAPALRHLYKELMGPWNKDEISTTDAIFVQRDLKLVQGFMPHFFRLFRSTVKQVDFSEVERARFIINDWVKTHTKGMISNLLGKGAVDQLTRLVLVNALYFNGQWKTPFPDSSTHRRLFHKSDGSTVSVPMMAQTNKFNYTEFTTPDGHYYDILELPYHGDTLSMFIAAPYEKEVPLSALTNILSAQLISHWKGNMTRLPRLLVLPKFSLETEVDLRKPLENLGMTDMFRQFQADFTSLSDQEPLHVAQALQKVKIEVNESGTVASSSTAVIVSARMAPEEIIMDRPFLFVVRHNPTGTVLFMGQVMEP

SMILES | half-life [1] | Tmax [2] | IC50 [3] | Cmax [4] | further results
O=C(Nc1ccc(Cl)cc1C(=O)O)c1cccc(C23CC4CC(CC(C4)C2)C3)c1 | 2.3 h | 2 h | 1860 nM | 4.4 µM | 
O=C(COCC(=O)Nc1ccc(Cl)cc1C(=O)[O-])Nc1cccc(-c2ccc(F)cc2)c1.[Na+] |  |  |  |  | Cmax [5]: 62.8 µM; Tmax [6]: 1 h
O=C(COCC(=O)Nc1ccc(Cl)cc1C(=O)[O-])Nc1cccc(-n2cccc2)c1.[Na+] |  |  |  |  | Tmax [7]: 2 h; half-life [8]: 2.2 h; Cmax [9]: 7.4 µM
O=C(COCC(=O)Nc1ccc(Cl)cc1C(=O)O)Nc1cccc(-c2ccoc2)c1 |  |  |  |  | Tmax [7]: 1 h; Cmax [5]: 149 µM; Cmax [9]: 17.9 µM; Tmax [6]: 1 h
COc1cccc(-c2ccc(C)c(NC(=O)COCC(=O)Nc3ccc(Cl)cc3C(=O)O)c2)c1 |  |  |  |  | Tmax [7]: 2 h; half-life [8]: 1.5 h; Cmax [9]: 9.4 µM
O=C(COCC(=O)Nc1ccc(Cl)cc1C(=O)[O-])Nc1cccc(-c2cccnc2)c1.[Na+] |  |  |  |  | Cmax [5]: 15.1 µM; Tmax [6]: 2 h
Cc1ccc(-c2ccc(F)cc2)cc1NC(=O)COCC(=O)Nc1ccc(Cl)cc1C(=O)O |  |  |  |  | Cmax [5]: 92.7 µM; Tmax [6]: 1 h; half-life [10]: 1.8 h
O=C(COCC(=O)Nc1ccc(Cl)cc1C(=O)O)NCc1cccc(-c2ccoc2)c1 | 2.7 h | 2 h |  | 14 µM | 
O=C(Nc1ccc(Cl)cc1C(=O)O)c1ccc(C2CCOCC2)cc1 | 1.8 h | 1 h | 21600 nM | 45.5 µM | 
O=C(Nc1ccc(Cl)cc1C(=O)O)c1ccc(C23CC4CC(CC(C4)C2)C3)cc1 | 4.3 h | 2 h | 1170 nM | 13.8 µM | 
O=C(COCC(=O)Nc1ccc(Cl)cc1C(=O)O)Nc1cccc(-c2ccsc2)c1 |  |  |  |  | Cmax [5]: 86.5 µM; Tmax [6]: 2 h
O=C(COCC(=O)Nc1ccc(Cl)cc1C(=O)O)Nc1ccc(-c2ccncc2)cc1 |  |  |  |  | Cmax [5]: 7.8 µM; Tmax [6]: 6 h
O=C(COCC(=O)Nc1ccccc1-c1ccc(F)cc1)Nc1ccc(Cl)cc1C(=O)O |  |  |  |  | Cmax [5]: 41.8 µM; Tmax [6]: 1 h
COc1ccccc1-c1ccc(C)c(NC(=O)COCC(=O)Nc2ccc(Cl)cc2C(=O)O)c1 |  |  |  |  | Tmax [7]: 2 h; half-life [8]: 2.5 h; Cmax [9]: 2.08 µM
CC(=O)Nc1ccc(-c2ccc(C)c(NC(=O)COCC(=O)Nc3ccc(Cl)cc3C(=O)O)c2)cc1 |  |  |  |  | Cmax [5]: 0.32 µM; Tmax [6]: 2 h; half-life [10]: 1.4 h
O=C(COCC(=O)Nc1ccc(Cl)cc1C(=O)O)Nc1ccc(-c2ccoc2)cc1 |  |  |  |  | Tmax [7]: 2 h; half-life [8]: 4.2 h; Cmax [9]: 17.6 µM
O=C(COCC(=O)Nc1ccc(Cl)cc1C(=O)O)Nc1cccc(-c2ccncc2)c1 |  |  |  |  | Cmax [5]: 18 µM; Tmax [6]: 6 h; half-life [10]: > 18 h
O=C(COCC(=O)Nc1ccc(Cl)cc1C(=O)O)Nc1cccc(-c2cn[nH]c2)c1 |  |  |  |  | Tmax [7]: 1 h; half-life [8]: 3.1 h; Cmax [9]: 1.7 µM
O=C(COCC(=O)Nc1ccc(Cl)cc1C(=O)O)Nc1cccc(-c2ccno2)c1 |  |  |  |  | Tmax [7]: 1 h; half-life [8]: 6 h; Cmax [9]: 14 µM
O=C(COCC(=O)Nc1ccc(Cl)cc1C(=O)O)Nc1cccc(C(F)(F)F)c1 |  |  |  |  | Cmax [5]: 58.6 µM; Tmax [6]: 1 h; half-life [10]: 0.8 h
O=C(COCC(=O)Nc1ccc(Cl)cc1C(=O)O)Nc1cccc(-c2ccon2)c1 |  |  |  |  | Tmax [7]: 2 h; half-life [8]: 1.9 h; Cmax [9]: 2 µM
O=C(COCC(=O)Nc1ccc(Cl)cc1C(=O)[O-])Nc1cccc(-c2ccccn2)c1.[Na+] |  |  |  |  | Cmax [5]: 136 µM; Tmax [6]: 1 h; half-life [10]: 2.4 h
O=C(COCC(=O)N1CCN(C(c2ccccc2)c2ccccc2)CC1)Nc1ccc(Cl)cc1C(=O)O |  |  |  |  | IC50 [11]: 7940 nM; Cmax [5]: 34.2 µM; Tmax [6]: 2 h; half-life [10]: 2.5 h
COc1ccc(-c2ccc(C)c(NC(=O)COCC(=O)Nc3ccc(Cl)cc3C(=O)O)c2)cc1 |  |  |  |  | Tmax [7]: 2 h; half-life [8]: 1 h; Cmax [9]: 2.2 µM
O=C(COCC(=O)Nc1ccc(Cl)cc1C(=O)O)Nc1cccc(-c2ccco2)c1 |  |  |  |  | Tmax [7]: 2 h; half-life [8]: 4 h; Cmax [9]: 11.5 µM
CCN(C(=O)COCC(=O)Nc1ccc(Cl)cc1C(=O)O)c1cc(-c2ccc(F)cc2)ccc1C |  |  |  |  | Tmax [7]: 1 h; half-life [8]: 0.9 h; Cmax [9]: 0.82 µM
O=C(Nc1ccc(Cl)cc1C(=O)O)c1ccc(C2CCCCC2)cc1 | 0.7 h | 1 h | 2400 nM | 15.2 µM | 
Cn1cc(-c2cccc(NC(=O)COCC(=O)Nc3ccc(Cl)cc3C(=O)O)c2)cn1 |  |  |  |  | Cmax [5]: 20.5 µM; Tmax [6]: 2 h; half-life [10]: 9.9 h

More lines, main results first:

half-life [1] | Tmax [2] | IC50 [3] | Cmax [4] | SMILES | further results
10.4 h | 2 h | 2980 nM | 73.5 µM | O=C(Nc1ccc(Cl)cc1C(=O)O)c1ccc(-c2ccccc2)cc1 | 
3.5 h | 2 h | 1670 nM | 1.1 µM | O=C(Nc1ccc(Cl)cc1C(=O)[O-])c1cccc(-c2cnc3ccccc3c2)c1.[Na+] | 
9.2 h | 6 h | 3190 nM | 1 µM | O=C(Nc1ccc(Cl)cc1C(=O)[O-])c1cccc(-c2cncc3ccccc23)c1.[Na+] | 
> 22 h | 2 h |  | 41.6 µM | O=C(NCc1cccc(-c2ccoc2)c1)C(=O)Nc1ccc(Cl)cc1C(=O)O | 
10.5 h | 2 h | 1840 nM | 1.2 µM | O=C(Nc1ccc(Cl)cc1C(=O)[O-])c1cccc(-c2cccc3cnccc23)c1.[Na+] | 
1.9 h | 2 h |  | 56.3 µM | O=C(COc1cccc(-c2ccoc2)c1)Nc1ccc(Cl)cc1C(=O)O | 
0.9 h | 1 h | 4110 nM | 35 µM | O=C(Nc1ccc(Cl)cc1C(=O)O)c1ccc(C(=O)c2ccccc2)cc1 | 
2.5 h | 1 h | 3630 nM | 22.2 µM | O=C(Nc1ccc(Cl)cc1C(=O)[O-])c1cccc(-c2cccc3cccnc23)c1.[Na+] | 
13.3 h | 6 h | 5520 nM | 64.2 µM | O=C(Nc1ccc(Cl)cc1C(=O)O)c1ccc(Oc2ccccc2)cc1 | 
1.7 h | 2 h |  | 22.5 µM | O=C(Nc1cccc(-c2ccoc2)c1)C(=O)Nc1ccc(Cl)cc1C(=O)O | 
5 h | 1 h | > 10000 nM | 22.3 µM | CC(C)Oc1ccc(C(=O)Nc2ccc(Cl)cc2C(=O)O)cc1 | 
1.6 h | 2 h | > 40000 nM | 5.2 µM | O=C(Nc1ccc(Cl)cc1C(=O)[O-])c1cccc(-c2ccncc2)c1.[Na+] | 
1.9 h | 2 h | > 20000 nM | 38.4 µM | O=C(Nc1ccc(Cl)cc1C(=O)O)c1ccc(-c2cccs2)cc1 | 
1.4 h | 1 h | 2420 nM | 3.3 µM | O=C(Nc1ccc(Cl)cc1C(=O)O)c1cccc(C2CCCCC2)c1 | 
3.4 h | 1 h | 5200 nM | 64.9 µM | CC(C)(C)c1ccc(C(=O)Nc2ccc(Cl)cc2C(=O)O)cc1 | 
2.6 h | 1 h |  | 5.4 µM | O=C(CSCC(=O)Nc1ccc(Cl)cc1C(=O)O)Nc1cccc(-c2ccoc2)c1 | 
1.7 h | 2 h | 900 nM | 6.3 µM | O=C(Nc1ccc(Cl)cc1C(=O)O)c1cccc(-c2cccc3ccccc23)c1 | 
1.6 h | 2 h | 2820 nM | 17 µM | O=C(Nc1ccc(Cl)cc1C(=O)O)c1cccc(-c2ccccc2)c1 | 
1.9 h | 2 h |  | 43.1 µM | O=C(Cc1cccc(-c2ccoc2)c1)Nc1ccc(Cl)cc1C(=O)O | 
2 h | 2 h |  | 29.4 µM | O=C(Nc1ccc(Cl)cc1C(=O)O)c1cccc(-c2ccoc2)c1 | 
0.7 h | 1 h | 2310 nM | 5.2 µM | O=C(Nc1ccc(Cl)cc1C(=O)O)c1cccc(C2=CCCCC2)c1 | 

Reference: ChEMBL document CHEMBL4184220, “Identification of novel plasminogen activator inhibitor-1 inhibitors with improved oral bioavailability: Structure optimization of N-acylanthranilic acid derivatives” (Bioorg Med Chem Lett, 2018)
